# Test results from patent US11357779B2 (G1 Therapeutics, Inc., priority 2018, dated 2022).
# Experiment: Noncompartmental pharmacokinetic parameters (Cmax, Tmax, AUC, Racc) in QD and BID cohorts of Form B
# Format: in vivo, human
# Conditions: for Racc (Max) / Racc (Mean) / Racc (Median) / Racc (Min): AUCDay 29/AUCDay 1
# Procedure: Analysis of plasma concentration versus time data for calculation of standard pharmacokinetic (PK) parameters following oral administration was conducted using Phoenix WinNonlin version 6.3 using actual blood sampling times.
# The following pharmacokinetic parameters were calculated from the concentration versus time data obtained in Example 1 for each of the above QD (200 mg, 300 mg, 400 mg, 500 mg, or 650 mg dosed) and BID (100 mg, 150 mg, or 200 mg doses) Form B of Compound II dosage cohorts: • Cmax—the observed peak plasma concentration determined from the plasma concentration versus time data obtained on Day 1 and Day 29, as applicable; • Tmax—the time to reach the observed peak plasma concentration from the plasma concentration versus time data obtained on Day 1 and Day 29, as applicable; • AUC—area under the plasma concentration versus time curve during a dosing interval on Day 1 and Day 29, as applicable; and • Racc—accumulation ratio calculated as AUCDay 29/AUCDay 1.
# [1] = Cohort 1, 200 mg QD of Form B, Day 1
# [2] = Cohort 2, 300 mg QD of Form B, Day 1
# [3] = Cohort 3, 400 mg QD of Form B, Day 1
# [4] = Cohort 4, 500 mg QD of Form B, Day 1
# [5] = Cohort 5, 650 mg QD of Form B, Day 1
# [6] = Cohort 6, 100 mg BID of Form B, Day 1
# [7] = Compound I, 100 mg BID of Form B, Cohort 6
# [8] = Compound I, 100 mg BID of Form B, Cohort 6, Day 29
# [9] = Compound I, 150 mg BID of Form B, Cohort 7
# [10] = Compound I, 150 mg BID of Form B, Cohort 7, Day 1
# [11] = Compound I, 150 mg BID of Form B, Cohort 7, Day 29
# [12] = Compound I, 200 mg BID of Form B, Cohort 7, Day 1
# [13] = Compound I, 200 mg BID of Form B, Cohort 8
# [14] = Compound I, 200 mg BID of Form B, Cohort 8, Day 29
# [15] = Compound I, 200 mg QD of Form B, Cohort 1
# [16] = Compound I, 200 mg QD of Form B, Cohort 1, Day 29
# [17] = Compound I, 300 mg QD of Form B, Cohort 2
# [18] = Compound I, 300 mg QD of Form B, Cohort 2, Day 29
# [19] = Compound I, 400 mg QD of Form B, Cohort 3
# [20] = Compound I, 400 mg QD of Form B, Cohort 3, Day 29
# [21] = Compound I, 500 mg QD of Form B, Cohort 4
# [22] = Compound I, 500 mg QD of Form B, Cohort 4, Day 29
# [23] = Compound I, 650 mg QD of Form B, Cohort 5
# [24] = Compound I, 650 mg QD of Form B, Cohort 5, Day 29
smiles,measurement,setting,value
"CC(C)N1CCN(c2ccc(Nc3ncc4cc5n(c4n3)C3(CCCCC3)CNC5=O)nc2)CC1 [Compound I, 2′-((5-(4-isopropylpiperazin-1-yl)pyridin-2-yl)amino)-7′,8′-dihydro-6′H-spiro[cyclohexane-1,9′-pyrazino[1′,2′:1,5]pyrrolo[2,3-d]pyrimidin]-6′-one]",AUClast (Max),[1],355 ng·h/mL
same,AUClast (Min),[1],98.9 ng·h/mL
same,Cmax (Max),[1],40.0 ng/mL
same,Cmax (Min),[1],8.26 ng/mL
same,AUClast (Max),[2],580 ng·h/mL
same,AUClast (Min),[2],106 ng·h/mL
same,AUClast (Max),[3],248 ng·h/mL
same,AUClast (Min),[3],177 ng·h/mL
same,Cmax (Max),[3],24.4 ng/mL
same,Cmax (Min),[3],14.4 ng/mL
same,AUClast (Max),[4],684 ng·h/mL
same,AUClast (Min),[4],403 ng·h/mL
same,Cmax (Max),[4],68.7 ng/mL
same,Cmax (Min),[4],27.8 ng/mL
same,AUClast (Max),[5],1040 ng·h/mL
same,AUClast (Min),[5],482 ng·h/mL
same,Cmax (Max),[5],80.7 ng/mL
same,Cmax (Min),[5],38.2 ng/mL
same,Tmax (Max),[5],10.0 h
same,AUClast (Max),[6],92.6 ng·h/mL
same,AUClast (Min),[6],42.8 ng·h/mL
same,Cmax (Max),[6],14.7 ng/mL
same,Cmax (Min),[6],7.25 ng/mL
same,Racc (Max),[7],2.96 (h * ng/mL)/(h * ng/mL)
same,Racc (Mean),[7],1.90 (h * ng/mL)/(h * ng/mL)
same,Racc (Median),[7],2.06 (h * ng/mL)/(h * ng/mL)
same,Racc (Min),[7],0.931 (h * ng/mL)/(h * ng/mL)
same,AUClast (Max),[8],183 ng·h/mL
same,AUClast (Min),[8],41.1 ng·h/mL
same,Cmax (Max),[8],20.5 ng/mL
same,Cmax (Min),[8],5.14 ng/mL
same,Tmax (Max),[8],12.0 h
same,Tmax (Min),[8],60 min
same,Racc (Max),[9],7.71 (h * ng/mL)/(h * ng/mL)
same,Racc (Mean),[9],3.88 (h * ng/mL)/(h * ng/mL)
same,Racc (Median),[9],2.28 (h * ng/mL)/(h * ng/mL)
same,Racc (Min),[9],1.66 (h * ng/mL)/(h * ng/mL)
same,AUClast (Max),[10],146 ng·h/mL
same,AUClast (Min),[10],103 ng·h/mL
same,Cmax (Max),[10],28.3 ng/mL
same,Cmax (Min),[10],12.2 ng/mL
same,AUClast (Max),[11],795 ng·h/mL
same,AUClast (Min),[11],235 ng·h/mL
same,Cmax (Max),[11],83.2 ng/mL
same,AUClast (Max),[12],185 ng·h/mL
same,AUClast (Min),[12],37.9 ng·h/mL
same,Cmax (Max),[12],29.0 ng/mL
same,Cmax (Min),[12],5.28 ng/mL
same,Racc (Max),[13],2.15 (h * ng/mL)/(h * ng/mL)
same,Racc (Mean),[13],2.06 (h * ng/mL)/(h * ng/mL)
same,Racc (Median),[13],2.11 (h * ng/mL)/(h * ng/mL)
same,Racc (Min),[13],1.91 (h * ng/mL)/(h * ng/mL)
same,AUClast (Max),[14],306 ng·h/mL
same,AUClast (Min),[14],79.8 ng·h/mL
same,Cmax (Max),[14],40.8 ng/mL
same,Cmax (Min),[14],7.69 ng/mL
same,Tmax (Max),[14],12.0 h
same,Racc (Max),[15],1.72 (h * ng/mL)/(h * ng/mL)
same,Racc (Mean),[15],1.17 (h * ng/mL)/(h * ng/mL)
same,Racc (Median),[15],1.15 (h * ng/mL)/(h * ng/mL)
same,Racc (Min),[15],0.740 (h * ng/mL)/(h * ng/mL)
same,AUClast (Max),[16],407 ng·h/mL
same,AUClast (Min),[16],73.2 ng·h/mL
same,Cmax (Max),[16],32.0 ng/mL
same,Cmax (Min),[16],5.90 ng/mL
same,Racc (Max),[17],3.62 (h * ng/mL)/(h * ng/mL)
same,Racc (Mean),[17],2.03 (h * ng/mL)/(h * ng/mL)
same,Racc (Median),[17],1.42 (h * ng/mL)/(h * ng/mL)
same,Racc (Min),[17],1.04 (h * ng/mL)/(h * ng/mL)
same,AUClast (Max),[18],789 ng·h/mL
same,AUClast (Min),[18],384 ng·h/mL
same,Cmax (Max),[18],73.0 ng/mL
same,Cmax (Min),[18],27.5 ng/mL
same,Tmax (Max),[18],10.0 h
same,Racc (Max),[19],1.90 (h * ng/mL)/(h * ng/mL)
same,Racc (Mean),[19],1.35 (h * ng/mL)/(h * ng/mL)
same,Racc (Median),[19],1.50 (h * ng/mL)/(h * ng/mL)
same,Racc (Min),[19],0.653 (h * ng/mL)/(h * ng/mL)
same,AUClast (Max),[20],371 ng·h/mL
same,AUClast (Min),[20],115 ng·h/mL
same,Cmax (Max),[20],26.7 ng/mL
same,Cmax (Min),[20],6.94 ng/mL
same,Racc (Max),[21],1.47 (h * ng/mL)/(h * ng/mL)
same,Racc (Mean),[21],1.12 (h * ng/mL)/(h * ng/mL)
same,Racc (Median),[21],0.965 (h * ng/mL)/(h * ng/mL)
same,Racc (Min),[21],0.932 (h * ng/mL)/(h * ng/mL)
same,AUClast (Max),[22],660 ng·h/mL
same,AUClast (Min),[22],570 ng·h/mL
same,Cmax (Max),[22],48.2 ng/mL
same,Cmax (Min),[22],36.4 ng/mL
same,Racc (Max),[23],1.47 (h * ng/mL)/(h * ng/mL)
same,Racc (Mean),[23],1.12 (h * ng/mL)/(h * ng/mL)
same,Racc (Median),[23],0.965 (h * ng/mL)/(h * ng/mL)
same,Racc (Min),[23],0.932 (h * ng/mL)/(h * ng/mL)
same,AUClast (Max),[24],660 ng·h/mL
same,AUClast (Min),[24],570 ng·h/mL
same,Cmax (Max),[24],48.2 ng/mL
same,Cmax (Min),[24],36.4 ng/mL
